# Results: US10689377B2 (Mirati Therapeutics, Inc., priority 2017, dated 2020)
# Target: KRas G12C (Homo sapiens, UniProt P01116, G12C)
# Assay: Cellular inhibition of KRas G12C measured by Phospho-ERK in NCI-H358 cells
# Assay type: cell-based
# Details: pERK(Thr202/Tyr204) normalized with GAPDH, NCI-H358 cells, 3 hours; read-out: IC50
# Method in brief: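 NCI-H358 cells were allowed to attach for 8-12 hours, then exposed to compounds for 3 hours at 0.5% DMSO final. After formaldehyde fixation and methanol permeabilization, phospho-ERK (Thr202/Tyr204) was detected by in-cell immunofluorescence and normalized to GAPDH; IC50 came from a 4-parameter fit of percent-of-DMSO values.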
# KRas G12C, sequence (P01116 1-188 isoform P01116-2 G12C): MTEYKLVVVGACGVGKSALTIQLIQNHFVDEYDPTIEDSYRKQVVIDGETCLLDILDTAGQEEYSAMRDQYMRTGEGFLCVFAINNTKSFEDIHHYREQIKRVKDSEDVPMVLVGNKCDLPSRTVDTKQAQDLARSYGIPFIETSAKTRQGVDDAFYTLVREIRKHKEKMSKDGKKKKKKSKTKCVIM
row,SMILES,IC50 [nM]
1,"C=CC(=O)N1CCN(c2nc(OC[C@@H]3CCCN3C)nc3c2CCN(c2cnccc2OC)C3)C[C@@H]1CC#N [Example 340, 2-((S)-1-acryloyl-4-(7-(4-methoxypyridin-3-yl)-2-(((S)-1-methylpyrrolidin-2-yl)methoxy)-5,6,7,8-tetrahydropyrido[3,4-d]pyrimidin-4-yl)piperazin-2-yl)acetonitrile]",> 1000
2,"C=CS(=O)(=O)N1CCN(c2nc(OC[C@@H]3CCCN3C)nc3c2CCN(c2cccc(C)c2C)C3)CC1 [Example 343, 7-(2,3-dimethylphenyl)-2-[[(2S)-methylpyrrolidin-2-yl]methoxy]-4-(4-vinylsulfonylpiperazin-1-yl)-6,8-dihydro-5H-pyrido[3,4-d]pyrimidine]",> 1000
3,"C=CC(=O)N1CCN(c2nc(OC[C@H]3CCCN3C)nc3c2CCN(c2cc(O)cc4ccccc24)C3)C[C@@H]1CC#N [Example 344, 2-[(2S)-4-[7-(3-hydroxy-1-naphthyl)-2-[[(2R)-1-methylpyrrolidin-2-yl]methoxy]-6,8-dihydro-5H-pyrido[3,4-d]pyrimidin-4-yl]-1-prop-2-enoyl-piperazin-2-yl]acetonitrile]",0.1 to 1000
4,"C=CC(=O)N1CCN(c2nc(OC[C@@H]3CCCN3C)nc3c2CCN(c2ccncc2C)C3)C[C@@H]1CC#N [Example 345, 2-[(2S)-4-[7-(3-methyl-4-pyridyl)-2-[[(2S)-1-methylpyrrolidin-2-yl]methoxy]-6,8-dihydro-5H-pyrido[3,4-d]pyrimidin-4-yl]-1-prop-2-enoyl-piperazin-2-yl]acetonitrile]",> 1000
5,"CN1CCC[C@H]1COc1nc2c(c(N3CCN(C(=O)/C=C/CN4CCOCC4)[C@@H](CC#N)C3)n1)CCN(c1cccc(Cl)c1C(F)(F)F)C2 [Example 346, 2-[(2S)-4-[7-[3-chloro-2-(trifluoromethyl)phenyl]-2-[[(2S)-1-methylpyrrolidin-2-yl]methoxy]-6,8-dihydro-5H-pyrido[3,4-d]pyrimidin-4-yl]-1-[(E)-4-morpholinobut-2-enoyl]piperazin-2-yl]acetonitrile]",0.1 to 1000
6,"CN1CCC[C@H]1COc1nc2c(c(N3CCN(C(=O)/C=C/CN4CCCC4)[C@@H](CC#N)C3)n1)CCN(c1cccc(Cl)c1C(F)(F)F)C2 [Example 347, 2-[(2S)-4-[7-[3-chloro-2-(trifluoromethyl)phenyl]-2-[[(2S)-1-methylpyrrolidin-2-yl]methoxy]-6,8-dihydro-5H-pyrido[3,4-d]pyrimidin-4-yl]-1-[(E)-4-pyrrolidin-1-ylbut-2-enoyl]piperazin-2-yl]acetonitrile]",0.1 to 1000
7,"C=CC(=O)N1CCN(c2nc(O[C@H](C)[C@H]3CCCN3C)nc3c2CCN(c2cc(O)cc4ccccc24)C3)C[C@@H]1CC#N [Example 348, 2-[(2S)-4-[7-(3-hydroxy-1-naphthyl)-2-[(1R)-1-[(2R)-1-methylpyrrolidin-2-yl]ethoxy]-6,8-dihydro-5H-pyrido[3,4-d]pyrimidin-4-yl]-1-prop-2-enoyl-piperazin-2-yl]acetonitrile]",0.1 to 1000
8,"C=CC(=O)N1CCN(c2nc(OC[C@@H]3CCCN3C)nc3c2CCN(c2c(C)ccc(F)c2C)C3)C[C@@H]1CC#N [Example 349, 2-((S)-1-acryloyl-4-(7-(3-fluoro-2,6-dimethylphenyl)-2-(((S)-1-methylpyrrolidin-2-yl)methoxy)-5,6,7,8-tetrahydropyrido[3,4-d]pyrimidin-4-yl)piperazin-2-yl)acetonitrile]",0.1 to 1000
9,"C=CC(=O)N1CCN(c2nc(OC[C@@H]3CCN(C)C3)nc3c2CCN(c2cc(O)cc4ccccc24)C3)C[C@@H]1CC#N [Example 350, 2-((S)-1-acryloyl-4-(7-(3-hydroxynaphthalen-1-yl)-2-(((R)-1-methylpyrrolidin-3-yl)methoxy)-5,6,7,8-tetrahydropyrido[3,4-d]pyrimidin-4-yl)piperazin-2-yl)acetonitrile]",0.1 to 1000
10,"C=CC(=O)N1CCN(c2nc(OCc3ncc[nH]3)nc3c2CCN(c2cccc4ccccc24)C3)C[C@@H]1CC#N [Example 351, 2-[(2S)-4-[2-(1H-imidazol-2-ylmethoxy)-7-(1-naphthyl)-6,8-dihydro-5H-pyrido[3,4-d]pyrimidin-4-yl]-1-prop-2-enoyl-piperazin-2-yl]acetonitrile]",0.1 to 1000

# The next lines start with the values.
row,IC50 [nM],SMILES
1,0.1 to 1000,"C=CC(=O)N1CCN(c2nc(OC[C@@H]3C[C@@H](OC)CN3C)nc3c2CCN(c2cccc4ccccc24)C3)C[C@@H]1CC#N [Example 327, 2-((S)-1-acryloyl-4-(2-(((2S,4R)-4-methoxy-1-methylpyrrolidin-2-yl)methoxy)-7-(naphthalen-1-yl)-5,6,7,8-tetrahydropyrido[3,4-d]pyrimidin-4-yl)piperazin-2-yl)acetonitrile]"
2,0.1 to 1000,C=CC(=O)N1CCN(c2nc(OC[C@@H]3CCCN3C)nc3c2CCN(c2cccc(F)c2C(F)(F)F)C3)C[C@@H]1CC#N [Example 328]
3,0.1 to 1000,"C=CC(=O)N1CCN(c2nc(OC[C@H]3CCCN3CCO)nc3c2CCN(c2cccc4ccccc24)C3)C[C@@H]1CC#N [Example 329, 2-[(2S)-4-[2-[[(2R)-1-(2-hydroxyethyl)pyrrolidin-2-yl]methoxy]-7-(1-naphthyl)-6,8-dihydro-5H-pyrido[3,4-d]pyrimidin-4-yl]-1-prop-2-enoyl-piperazin-2-yl]acetonitrile]"
4,0.1 to 1000,"C=CC(=O)N1CCN(c2nc(OC[C@@H]3CCCN3C)nc3c2CCN(c2cccc(OC)c2C(F)(F)F)C3)C[C@@H]1CC#N [Example 330, 2-[(2S)-4-[7-[3-methoxy-2-(trifluoromethyl)phenyl]-2-[[(2S)-1-methylpyrrolidin-2-yl]methoxy]-6,8-dihydro-5H-pyrido[3,4-d]pyrimidin-4-yl]-1-prop-2-enoyl-piperazin-2-yl]acetonitrile]"
5,0.1 to 1000,"C=CC(=O)N1CCN(c2nc(OC[C@@H]3C[C@@H](OC)CN3C)nc3c2CCN(c2cccc(Cl)c2C(F)(F)F)C3)C[C@@H]1CC#N [Example 332, 2-[(2S)-4-[7-[3-chloro-2-(trifluoromethyl)phenyl]-2-[[(2S,4R)-4-methoxy-1-methyl-pyrrolidin-2-yl]methoxy]-6,8-dihydro-5H-pyrido[3,4-d]pyrimidin-4-yl]-1-prop-2-enoyl-piperazin-2-yl]acetonitrile]"
6,0.1 to 1000,"C=CC(=O)N1CCN(c2nc(OC[C@@H]3CCCN3C)nc3c2CCN(c2cccc4ccc(F)cc24)C3)C[C@@H]1CC#N [Example 333, 2-[(2S)-4-[7-(7-fluoro-1-naphthyl)-2-[[(2S)-1-methylpyrrolidin-2-yl]methoxy]-6,8-dihydro-5H-pyrido[3,4-d]pyrimidin-4-yl]-1-prop-2-enoyl-piperazin-2-yl]acetonitrile]"
7,0.1 to 1000,"C=CC(=O)N1CCN(c2nc(OC[C@H]3CCCN3CC)nc3c2CCN(c2cccc4ccccc24)C3)C[C@@H]1CC#N [Example 334, 2-[(2S)-4-[2-[[(2R)-1-ethylpyrrolidin-2-yl]methoxy]-7-(1-naphthyl)-6,8-dihydro-5H-pyrido[3,4-d]pyrimidin-4-yl]-1-prop-2-enoyl-piperazin-2-yl]acetonitrile]"
8,0.1 to 1000,"C=CC(=O)N1CCN(c2nc(OC[C@@H]3C[C@@H](OC)CN3CC)nc3c2CCN(c2cccc(Cl)c2C(F)(F)F)C3)C[C@@H]1CC#N [Example 335, 2-[(2S)-4-[7-[3-chloro-2-(trifluoromethyl)phenyl]-2-[[(2S,4R)-1-ethyl-4-methoxy-pyrrolidin-2-yl]methoxy]-6,8-dihydro-5H-pyrido[3,4-d]pyrimidin-4-yl]-1-prop-2-enoyl-piperazin-2-yl]acetonitrile]"
9,0.1 to 1000,"C=CC(=O)N1C[C@H](C)N(c2nc(OC[C@@H]3CCCN3C)nc3c2CCN(c2cc(O)cc4ccccc24)C3)C[C@H]1C [Example 336, 1-[(2R,5S)-4-[7-(3-hydroxy-1-naphthyl)-2-[[(2S)-1-methylpyrrolidin-2-yl]methoxy]-6,8-dihydro-5H-pyrido[3,4-d]pyrimidin-4-yl]-2,5-dimethyl-piperazin-1-yl]prop-2-en-1-one]"
10,0.1 to 1000,"C=CC(=O)N1CCN(c2nc(OC[C@@H]3CCCN3C)nc3c2CCN(c2cccc(Cl)c2CC)C3)C[C@@H]1CC#N [Example 337, 2-[(2S)-4-[7-(3-chloro-2-ethyl-phenyl)-2-[[(2S)-1-methylpyrrolidin-2-yl]methoxy]-6,8-dihydro-5H-pyrido[3,4-d]pyrimidin-4-yl]-1-prop-2-enoyl-piperazin-2-yl]acetonitrile]"
11,0.1 to 1000,C=CC(=O)N1CCN(c2nc(OC[C@@H]3CCCN3C)nc3c2CCN(c2cccc4cccc(F)c24)C3)C[C@@H]1CC#N [Example 338]
12,0.1 to 1000,"C=CC(=O)N1CCN(c2nc(OC[C@@H]3CCCN3CC)nc3c2CCN(c2cccc(Cl)c2C(F)(F)F)C3)C[C@@H]1CC#N [Example 339, 2-((S)-1-acryloyl-4-(7-(3-chloro-2-(trifluoromethyl)phenyl)-2-(((S)-1-ethylpyrrolidin-2-yl)methoxy)-5,6,7,8-tetrahydropyrido[3,4-d]pyrimidin-4-yl)piperazin-2-yl)acetonitrile]"
13,0.1 to 1000,"C=CC(=O)N1CCN(c2nc(OC[C@@H]3CCCN3CCO)nc3c2CCN(c2cccc4ccccc24)C3)C[C@@H]1CC#N [Example 341, 2-((S)-1-acryloyl-4-(2-(((S)-1-(2-hydroxyethyl)pyrrolidin-2-yl)methoxy)-7-(naphthalen-1-yl)-5,6,7,8-tetrahydropyrido[3,4-d]pyrimidin-4-yl)piperazin-2-yl)acetonitrile]"
14,0.1 to 1000,"CN(C)C/C=C/C(=O)N1CCN(c2nc(OC[C@@H]3C[C@@H](O)CN3C)nc3c2CCN(c2cccc(F)c2C(F)(F)F)C3)C[C@@H]1CC#N [Example 342, 2-[(2S)-1-[(E)-4-(dimethylamino)but-2-enoyl]-4-[7-[3-fluoro-2-(trifluoromethyl)phenyl]-2-[[(2S,4R)-4-hydroxy-1-methyl-pyrrolidin-2-yl]methoxy]-6,8-dihydro-5H-pyrido[3,4-d]pyrimidin-4-yl]piperazin-2-yl]acetonitrile]"
